Results published in patent publication US20250230226A1, “PLXDC1/PLXDC2 ACTIVATORS AND THEIR USE IN THE TREATMENT OF BLOOD VESSEL DISORDERS” (THE REGENTS OF THE UNIVERSITY OF CALIFORNIA, priority 2019, published 2025).

What was measured:
[1] = system: CT26.CL25 colon cancer tumor endothelial cells; assay: Colon CT26 ex vivo model of tumor angiogenesis; assay type: cell-based, mouse; settings: for 48 hrs (morphology observations after 48 hours): Conc. 40 μm; for cytotoxicity at 40 µM: Mus musculus, Endothelial cell, 48 h, read-out: Cell death
Procedure: An ex vivo tumor angiogenesis model was developed to test the efficacy of anti-cancer candidate agents. The following protocol describes the Ex Vivo Tumor Angiogenesis Model.
• 1. The day before the experiment, all necessary tools were sprayed with 70% ethanol and sterilized under UV light overnight, including blade, dissecting and micro-dissecting scissors and […]. 24-well dishes were placed at 4° C. to pre-chill plates and Matrigel was thawed, 24 hours before tumor dissection. • 2. 70% ethanol was sprayed on working bench. Two sterile petri dishes were prepared with 10 ml sterile PBS. The following steps 3 and 4 are necessary for mouse tumor models. For fresh human tumor, steps 3 and 4 are skipped. • 3. The tumor-bearing mice were euthanized. 70% ethanol was sprayed on the mouse and the tumor was removed using sterilized dissecting tools (avoid the fur). The tumor was rinsed in petri dish with sterile PBS to remove ethanol and fur. The tumor was transferred to a new petri dish with PBS for dissection. The dish is placed on ice. • 4. Pre-chilled sterile pipet tips were used to seed regular Matrigel in 24 well plates on ice. Matrigel (30 μl) was dropped in the middle of each well without touching the edge of the well (avoid introducing bubbles if possible). • 5. The tumor was cut in halves using the sterile blade. Healthy tumor tissue that is not necrotic and is within the tumor capsule was identified and isolated. The healthy tumor tissue was cut into small pieces. For instance, a suitable size for the tumor tissue is 0.5 mm (H)×0.5 mm (L)×0.3 mm (D) with a total volume of 0.075 mm^3. • 6. Each tumor piece was gently transferred and embedded in the Matrigel drop in the 24-well plate. The embedded piece was placed in the bottom and middle of each Matrigel drop. The plate was kept on ice all the time. • 7. After seeding the tumor pieces, plates were incubated in a 37° C. cell culture incubator without medium for 10 minutes in order for the Matrigel to solidify. • 8. Endothelial Growth Medium (0.5 ml) was added to each well and incubated at 37° C. with 5% CO2. Treatment was not added until the new endothelial cells was grown out of the tumor or were larger than 3 mm in diameter. This usually takes 4 days for the LL2 Lewis lung cancer model and 7 days for the CT26 colon cancer model. For human tumor models, the growth time is typically 2-3 weeks, depending on the tumor type. Media was changed every 4 days during prolonged culture. Typically, when the tumor tissue grows to 2 mm in diameter, it was good for drug testing. A size of about 3 mm in diameter can make visualization easier. • 9. When the assay was ready to be analyzed for cell death (e.g., 48 hours after drug addition), the dye mixture was prepared by mixing 6 μl of green dye to stain live cells (5 mg/ml Fluorescein diacetate or FDA in DMSO) with 30 μl of red dye (2.5 mg/ml Propidium iodide or PI in PBS) to stain dead cells in an Eppendorf tube. The FDA dye needs to be stored frozen in a −20° C. freezer because it has a labile ester bond. • 10. 1 μl of the dye mixture was added to each well of the 24-well dish. It is usually preferred to do one 24-well dish at a time given the amount of time needed to take pictures (the green dye is not as stable in the cells in the long term). • 11. The dish was gently rocked a few times to mix the dye with the media in the wells and incubate the dish at 37° C. for 10 min (too long incubation can make the green signal too intense). • 12. Each well was washed with 0.5 ml of sterile PBS and then 0.5 ml of phenol red free SFM was added to each well. Alternatively 0.5 ml of regular Endothelial Cell Growth Media can be added to each well if this well needs to be continuously maintained after the experiment. • 13. An inverted microscope using the 2× objective lens was used to observe morphological changes in the experimental wells. • 14. […]

[2] = system: LL/2 lung cancer tumor endothelial cells; assay: Lung LL2 ex vivo model of tumor angiogenesis; assay type: cell-based, mouse; settings: for 48 hrs (morphology observations): LL/2 tumor endothelial cells; for cytotoxicity at 40 µM: Mus musculus, Endothelial cell, 48 h, read-out: Cell death; for Cell death: drug treatment for two days, ratio of red area to total endothelial cell area
In short: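 LL2 mouse tumor fragments (~0.075 mm³) embedded in Matrigel and cultured in endothelial growth medium at 37 °C until endothelial outgrowth (~4 days) before treatment. Cell death assessed e.g. 48 h after drug by fluorescein diacetate (live)/propidium iodide (dead) staining and red/green fluorescence imaging.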

For `CCc1ccc(S(=O)(=O)c2cnc3ccc(OC(F)(F)F)cc3c2N2CCC(O)(c3ccc4c(c3)OCO4)CC2)cc1` [Compound 147], the “48 hrs (morphology observations after 48 hours)” value [1] was 0 and the cytotoxicity at 40 µM [1] was 0%.

In the case of `CN1CCCN(c2c(S(=O)(=O)c3ccc([N+](=O)[O-])cc3)cnc3ccc(OC(F)(F)F)cc23)CC1` [Compound 60], the “48 hrs (morphology observations after 48 hours)” value [1] was 0 and the cytotoxicity at 40 µM [1] was 5%.

With `COc1ccc(S(=O)(=O)c2cnc3ccc(OC(F)(F)F)cc3c2N2CCC(O)(c3cccc(OC)c3)CC2)cc1` [Compound 146] the “48 hrs (morphology observations after 48 hours)” value [1] was 0 and the cytotoxicity at 40 µM [1] was 0%.

`COc1ccc(S(=O)(=O)c2cnc3ccc(SC)cc3c2N2CCC(N3CCC(O)CC3)CC2)cc1OC` [Compound 153] was tested, and the “48 hrs (morphology observations after 48 hours)” value [1] was “* (50% or less of cells vesicularize in cell shape)” and the cytotoxicity at 40 µM [1] was 20%.

`CCOC(=O)c1ccc2ncc(S(=O)(=O)c3ccc(CC)cc3)c(N3CCCC(O)C3)c2c1` (centres unmarked) [Compound 135] was tested, and the “48 hrs (morphology observations after 48 hours)” value [1] was 0 and the cytotoxicity at 40 µM [1] was 30%.

`CCOC(=O)c1ccc2ncc(S(=O)(=O)c3ccc(CC)cc3)c(N3CCC(O)(c4ccc(CC)cc4)CC3)c2c1` [Compound 128] was tested, and the “48 hrs (morphology observations after 48 hours)” value [1] was 0 and the cytotoxicity at 40 µM [1] was 10%.

For `CCOC(=O)c1ccc2ncc(S(=O)(=O)c3ccc(CC)cc3)c(N3CCC(N4CCC(O)CC4)CC3)c2c1` [Compound 130], the “48 hrs (morphology observations after 48 hours)” value [1] was 0 and the cytotoxicity at 40 µM [1] was 40%.

With `CCOC(=O)c1ccc2ncc(S(=O)(=O)c3ccc(OC)cc3)c(N3CCC(OCCN(CC)CC)CC3)c2c1` [Compound 140] the “48 hrs (morphology observations after 48 hours)” value [1] was “** (more than 50% but less than 100% of endothelial cells vesicularize in cell shape)” and the cytotoxicity at 40 µM [1] was 60%.

With `CCc1ccc(S(=O)(=O)c2cnc3ccc(OC(F)(F)F)cc3c2N2CCC(O)(c3cccc(OC)c3)CC2)cc1` [Compound 150] the “48 hrs (morphology observations after 48 hours)” value [1] was 0 and the cytotoxicity at 40 µM [1] was 10%.

In the case of `CCCCOc1ccc2ncc(S(=O)(=O)c3ccc(OC)c(OC)c3)c(N(CC)CC)c2c1` [Compound 123], the “48 hrs (morphology observations after 48 hours)” value [1] was 0 and the cytotoxicity at 40 µM [1] was 20%.

`CCOC(=O)c1ccc2ncc(S(=O)(=O)c3ccc(CC)cc3)c(N3CCC(O)(c4ccc(OC)cc4)CC3)c2c1` [Compound 148] was tested, and the “48 hrs (morphology observations after 48 hours)” value [1] was 0 and the cytotoxicity at 40 µM [1] was 0%.

For `CCOC(=O)c1ccc2ncc(S(=O)(=O)c3ccc(CC)cc3)c(N3CCC(OCCN(CC)CC)CC3)c2c1` [Compound 132], the “48 hrs (morphology observations after 48 hours)” value [1] was “* (50% or less of cells vesicularize in cell shape)” and the cytotoxicity at 40 µM [1] was 40%.

With `CCCCOc1ccc(S(=O)(=O)c2cnc3ccc(SC)cc3c2N2CCCN(CCN3CCCC3)CC2)cc1` [Compound 207] the “48 hrs (morphology observations after 48 hours)” value [1] was “**** (100% of endothelial cells vesicularize in cell shape and look flattened in morphology (indicating disintegration of the cell body))” and the cytotoxicity at 40 µM [1] was 100%.

`CCc1ccc(C2(O)CCN(c3c(S(=O)(=O)c4ccc(OC)cc4)cnc4ccc(OC(F)(F)F)cc34)CC2)cc1` [Compound 129] was tested, and the “48 hrs (morphology observations after 48 hours)” value [1] was 0 and the cytotoxicity at 40 µM [1] was 0%.

For `CCOC(=O)c1ccc2ncc(S(=O)(=O)c3ccc(OC)cc3)c(N3CCCN(CCN(CC)CC)CC3)c2c1` [Compound 139], the “48 hrs (morphology observations after 48 hours)” value [1] was 0 and the cytotoxicity at 40 µM [1] was 40%.

`CCCCCCCCCCOc1ccc(S(=O)(=O)c2cnc3ccc([S+](C)[O-])cc3c2N2CCC(N3CCC(O)(c4ccccc4)CC3)CC2)cc1` (centres unmarked) [Compound 270] was tested, and the “48 hrs (morphology observations)” value ([2]; 20 μm) was “* (50% or less of cells vesicularize in cell shape)”.

With `CCCCOc1ccc(S(=O)(=O)c2cnc3ccc(SC)cc3c2N2CCCN(S(=O)(=O)NCC(F)(F)F)CC2)cc1` [Compound 353] the “48 hrs (morphology observations)” value ([2]; 40 μm) was 0 and the cytotoxicity at 40 µM [2] was 0%.

In the case of `CCCCOc1ccc(S(=O)(=O)c2cnc3ccc([S+](C)[O-])cc3c2N2CCC(N3CCCCC3)CC2)cc1` (centres unmarked) [Compound 167], the “48 hrs (morphology observations)” value ([2]; 20 μm) was 0 and the Cell death ([2]; 20 μm) was 40%.

With `CCCCCCCOc1ccc(S(=O)(=O)c2cnc3ccc([S+](C)[O-])cc3c2N2CCN(C3CCN(Cc4ccccc4)C3)CC2)cc1` (centres unmarked) [Compound 278] the “48 hrs (morphology observations)” value ([2]; 10 μm) was “* (50% or less of cells vesicularize in cell shape)” and the Cell death ([2]; 10 μm) was 50%.

For `CCCCOc1ccc(S(=O)(=O)c2cnc3ccc([S+](C)[O-])cc3c2N2CCC(N3CCC(N4CCCCC4)CC3)CC2)cc1` (centres unmarked) [Compound 237], the “48 hrs (morphology observations)” value ([2]; 40 μm) was “*** (more than 50% but less than 100% of endothelial cells vesicularize in cell shape)” and the Cell death ([2]; 40 μm) was 100%.

In the case of `CCc1ccc(S(=O)(=O)c2cnc3ccc(OC(F)(F)F)cc3c2NCCCCO)cc1` [Compound 111], the “48 hrs (morphology observations)” value ([2]; 20 μm) was 0 and the Cell death ([2]; 20 μm) was 30%.

`CCN(c1c(S(=O)(=O)c2ccc(OC)cc2)cnc2cc(OC)c(OC)cc12)C(C)C` [Compound 294] was tested, and the “48 hrs (morphology observations)” value ([2]; 40 μm) was “* (50% or less of cells vesicularize in cell shape)” and the Cell death ([2]; 40 μm) was 50%.

With `CCCCOc1ccc(S(=O)(=O)c2cnc3ccc(C(=O)N(CC)CC)cc3c2N2CCCN(C)CC2)cc1` [Compound 199] the “48 hrs (morphology observations)” value ([2]; 40 μm) was 0 and the Cell death ([2]; 40 μm) was 30%.

For `CCOC(=O)c1ccc2ncc(S(=O)(=O)c3ccc(OC)cc3)c(N3CCC(N4CCN(C)CC4)CC3)c2c1` [Compound 171], the “48 hrs (morphology observations)” value ([2]; 40 μm) was 0 and the Cell death ([2]; 40 μm) was 40%.

`CCCCCCCCCCCCOc1ccc(S(=O)(=O)c2cnc3ccc([S+](C)[O-])cc3c2N2CCC(N3CCC(N4CCN(C)CC4)CC3)CC2)cc1F` (centres unmarked) [Compound 370] showed a Cell death ([2]; 20 μm) of 20%.

`COc1ccc(S(=O)(=O)c2cnc3cc(OC)c(OC)cc3c2N2CCC(N3CCCC3=O)CC2)cc1` [Compound 321] was tested, and the “48 hrs (morphology observations)” value ([2]; 40 μm) was 0 and the Cell death ([2]; 40 μm) was 40%.

`CCCCOc1ccc(S(=O)(=O)c2cnc3ccc(SC)cc3c2N2CCCN(C3CCS(=O)(=O)CC3)CC2)cc1` [Compound 359] was tested, and the “48 hrs (morphology observations)” value ([2]; 40 μm) was 0 and the cytotoxicity at 40 µM [2] was 20%.

With `COc1ccc(S(=O)(=O)c2cnc3cc(OC)c(OC)cc3c2N2CCC3C(COCCN3CC(C)C)C2)cc1` (centres unmarked) [Compound 324] the “48 hrs (morphology observations)” value ([2]; 40 μm) was 0 and the Cell death ([2]; 40 μm) was 60%.

For `CCCCCCCCCCOc1ccc(S(=O)(=O)c2cnc3ccc([S+](C)[O-])cc3c2N2CCC(N3CCC(N4CCN(C)CC4)CC3)CC2)cc1` (centres unmarked) [Compound 285], the “48 hrs (morphology observations)” value ([2]; 10 μm) was “*** (more than 50% but less than 100% of endothelial cells vesicularize in cell shape)” and the Cell death ([2]; 10 μm) was 60%.

`CCCCOc1ccc(S(=O)(=O)c2cnc3ccc(SC)cc3c2N2CCCN(CCO)CC2)cc1` [Compound 351] was tested, and the “48 hrs (morphology observations)” value ([2]; 40 μm) was “*** (more than 50% but less than 100% of endothelial cells vesicularize in cell shape)” and the cytotoxicity at 40 µM [2] was 100%.

`CCOC(=O)c1ccc2ncc(S(=O)(=O)c3ccc(OC)cc3)c(-n3ccnn3)c2c1` [Compound 184] was tested, and the “48 hrs (morphology observations)” value ([2]; 10 μm) was 0 and the Cell death ([2]; 10 μm) was 5%.

Work on `CCCCCCCOc1ccc(S(=O)(=O)c2cnc3ccc(SC)cc3c2N2CCN(CCN3CCCCC3)CC2)cc1` [Compound 281] yielded a Cell death ([2]; 20 μm) of 50%.

`CCc1ccc(S(=O)(=O)c2cnc3ccc(OC(F)(F)F)cc3c2NCCCCCO)cc1` [Compound 104] was tested, and the “48 hrs (morphology observations)” value ([2]; 20 μm) was 0 and the Cell death ([2]; 20 μm) was 20%.

In the case of `CCCCCCCCCCCCOc1ccc(S(=O)(=O)c2cnc3ccc([S+](C)[O-])cc3c2N2CCC(N3CCN(CCO)CC3)CC2)cc1F` (centres unmarked) [Compound 362], the “48 hrs (morphology observations)” value ([2]; 20 μm) was “*** (more than 50% but less than 100% of endothelial cells vesicularize in cell shape)” and the Cell death ([2]; 20 μm) was 20%.
